From PubChem BioAssay AID256 (DTP/NCI, 2004)
Several values for one entry are separate records, joined by “and”; a condition that tells them apart may be missing. Equal entries are not always repeated. Inconclusive results and toxic doses are left out. Rule for the calls: active = survival T/C of 150% or more; inactive = T/C below 125% in these data.

Tested on: CD2F1 mice, L1210 leukemia ip, survival T/C
Assay: NCI In Vivo Anticancer Drug Screen. Data for tumor model L1210 Leukemia (intraperitoneal) in CD2F1 (CDF1) mice
Settings: endpoint: mean survival time, higher = longer survival
Outline: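 Activity against a transplanted murine tumor was judged by comparing the compound group with a vehicle group. The outcome in the treated animals was divided by that in the controls.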

[1] = dose: 100.0 mg/kg/injection, schedule: Q01DX001 (ip), vehicle: saline
[2] = dose: 200.0 mg/kg/injection, schedule: Q01DX001 (ip), vehicle: saline
[3] = dose: 100.0 mg/kg/injection, schedule: Q01DX009 (ip), vehicle: saline with Tween-80
[4] = dose: 100.0 mg/kg/injection, schedule: Q04DX003 (ip), vehicle: saline with Tween-80
[5] = dose: 200.0 mg/kg/injection, schedule: Q01DX009 (ip), vehicle: saline with Tween-80
[6] = dose: 200.0 mg/kg/injection, schedule: Q04DX003 (ip), vehicle: saline with Tween-80
[7] = dose: 400.0 mg/kg/injection, schedule: Q01DX009 (ip), vehicle: saline with Tween-80
[8] = dose: 400.0 mg/kg/injection, schedule: Q04DX003 (ip), vehicle: saline with Tween-80

Measured: T/C

NCCCCCC(=O)O
inactive: dose: 25.0 mg/kg/injection, schedule: Q01DX001 (ip), vehicle: saline 98 % of control | dose: 50.0 mg/kg/injection, schedule: Q01DX001 (ip), vehicle: saline 98 % of control | [1] 93 % of control | dose: 100.0 mg/kg/injection, schedule: Q01DX009 (ip), vehicle: saline 94 % of control | dose: 100.0 mg/kg/injection, schedule: Q04DX003 (ip), vehicle: saline 89 % of control | dose: 200.0 mg/kg/injection, schedule: Q01DX009 (ip), vehicle: saline 96 % of control | dose: 200.0 mg/kg/injection, schedule: Q04DX003 (ip), vehicle: saline 98 % of control | dose: 400.0 mg/kg/injection, schedule: Q01DX009 (ip), vehicle: saline 97 % of control | dose: 400.0 mg/kg/injection, schedule: Q04DX003 (ip), vehicle: saline 102 % of control

O=c1ssc(=Nc2ccccc2)n1-c1ccccc1
inactive: dose: 12.5 mg/kg/injection, schedule: Q01DX009 (ip), vehicle: Klucel (hydroxypropylcellulose) (HPC) 103 % of control | dose: 25.0 mg/kg/injection, schedule: Q01DX009 (ip), vehicle: Klucel (hydroxypropylcellulose) (HPC) 93 % of control and 102 % of control | dose: 50.0 mg/kg/injection, schedule: Q01DX009 (ip), vehicle: Klucel (hydroxypropylcellulose) (HPC) 98 % of control and 110 % of control | dose: 100.0 mg/kg/injection, schedule: Q01DX009 (ip), vehicle: Klucel (hydroxypropylcellulose) (HPC) 103 % of control and 108 % of control | dose: 200.0 mg/kg/injection, schedule: Q01DX009 (ip), vehicle: Klucel (hydroxypropylcellulose) (HPC) 98 % of control and 102 % of control | dose: 400.0 mg/kg/injection, schedule: Q01DX009 (ip), vehicle: Klucel (hydroxypropylcellulose) (HPC) 117 % of control and 104 % of control

c1ccc(CNCCCNCc2ccccn2)nc1
inactive: [1] 100 % of control | [2] 100 % of control

OC(Cc1ccccn1)C(Cl)(Cl)Cl (stereo unspecified)
inactive: dose: 50.0 mg/kg/injection, schedule: Q04DX002 (ip), vehicle: saline 97 % of control | [3] 102 % of control | dose: 100.0 mg/kg/injection, schedule: Q04DX002 (ip), vehicle: saline 114 % of control | [4] 95 % of control | [5] 112 % of control | dose: 200.0 mg/kg/injection, schedule: Q04DX002 (ip), vehicle: saline 94 % of control | [6] 111 % of control | [7] 98 % of control | [8] 103 % of control

Cc1c(Cl)cccc1NC(=O)Nc1cccc2ccccc12
inactive: [3] 113 % of control | [4] 93 % of control | [5] 102 % of control | [6] 102 % of control | [7] 96 % of control | [8] 100 % of control

CNC(=O)/C(=C(\[O-])NC)[S+](C)(C)=O
inactive: [4] 101 % of control | [6] 100 % of control | [8] 100 % of control

CNC(C1CCCCC1)C(C)OC(=O)c1ccc(N)cc1 (stereo unspecified)
inactive: dose: 75.0 mg/kg/injection, schedule: Q01DX001 (ip), vehicle: saline 100 % of control

C=C[Si](C=C)(C=C)C=C
inactive: [1] 101 % of control | [2] 104 % of control | dose: 400.0 mg/kg/injection, schedule: Q01DX001 (ip), vehicle: saline 107 % of control

C=C(C)C1CCC2(C=O)CCC3(C)C(CCC4C5(C)CCC(OC6CCCCO6)C(C)(C)C5CCC43C)C12 (stereo unspecified)
inactive: dose: 6.25 mg/kg/injection, schedule: Q04DX002 (ip), vehicle: saline with Tween-80 111 % of control | dose: 12.5 mg/kg/injection, schedule: Q04DX002 (ip), vehicle: saline with Tween-80 100 % of control | dose: 25.0 mg/kg/injection, schedule: Q04DX002 (ip), vehicle: saline with Tween-80 100 % of control

O=C1c2ccccc2C(=O)c2c(NCCN3CCNCC3)ccc(NCCN3CCNCC3)c21
inactive: dose: 4.0 mg/kg/injection, schedule: Q01DX009 (ip), vehicle: acid diluted with saline 100 % of control | dose: 8.0 mg/kg/injection, schedule: Q01DX009 (ip), vehicle: acid diluted with saline 102 % of control | dose: 16.0 mg/kg/injection, schedule: Q01DX009 (ip), vehicle: acid diluted with saline 106 % of control | dose: 32.0 mg/kg/injection, schedule: Q01DX009 (ip), vehicle: acid diluted with saline 104 % of control
